Legend:
[1] = molecular target: T1, RORγ ligand binding domain (Homo sapiens, UniProt P51449); assay: RORγ radioligand competition binding assay (SPA); conditions: competition with tritiated 2-(4-(ethylsulfonyl)phenyl)-N-(4-(2-(methoxymethyl)phenyl)thiophen-2-yl)acetamide (25 nM), hRORγ LBD
Outline: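 SPA competition on E. coli-expressed N-6×HN-Avi-GST-TCS-hRORγ LBD (S258-K518), 4 nM on YOx glutathione beads, in 20 mM Tris, 150 mM NaCl, 10% glycerol, 0.25% CHAPS, 1 mM TCEP. Compound pre-incubation 1 h RT, then 25 nM tritiated tracer for 16 h. IC50 normalized to vehicle/reference controls; Ki = IC50/(1+[L]/Kd), Kd 17 nmol/L.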

[2] = molecular target: T1, RORγ ligand binding domain; assay: RORγ co-factor recruitment assay (FRET); format: biochemical; parameters: made in house; host or cells: E. coli BL21DE3 Star; conditions: inhibition of recruitment of SRC-1 peptide (NCOA1_677-700) to hRORγ LBD, HTRF read-out
Outline: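 Inverse-agonist TR-FRET measuring biotinylated SRC-1 peptide (NCOA1 677-700, 160 nM in pre-mix) recruitment to E. coli-expressed biotinylated HN-Avi-MBP-TCS-hRORγ LBD (258-518; 100 nM in pre-mix), with Eu-streptavidin and streptavidin-APC, in MOPS pH 7.4 buffer, 1 h at rt. 665/612 nm ratio normalised to vehicle and reference control; IC50 from curve fit.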

[3] = tested on: human TH17 cells; assay: Inhibition of IL-17 release from human TH17 cells; format: cell-based; conditions: 96 h; isolated human TH17 cells cultured 4 days, IL-17A in supernatant by HTRF; read-out: pIC50 IL-17 release (converted)
From the text: Inhibition of IL-17 Release from Human TH17 Cells
This test is designed to screen compounds for their inhibitory effect on the release of IL-17 from isolated and cultured human TH17 cells.
Peripheral blood mononuclear cells (PBMC) were isolated from heparin treated human whole blood from healthy donors by density gradient centrifugation. TH17 cells (CD4+CXCR3−CCR6+) were enriched using a human TH17 Cell Enrichment Kit (Stemcell Technologies) according to the manufacturer's protocol. The isolated TH17 cells were activated with aCD3aCD28 beads (MACS Miltenyi) and cultured in X-Vivo15 medium (Lonza) supplemented with L-glutamine, β-mercaptoethanol and a cytokine cocktail consisting of; IL-2, IL-23, IL-1β, IL-6, TGF-β. Cells were seeded at 8000 cells/well in a 384-plate (Corning, #3707) in the presence of compounds or DMSO and cultured for 4 days (37° C., 5% CO2). On day 4 supernatants were collected and IL-17A was measured using a Human IL-17 HTRF Assay kit (Cisbio Bioassays) according to the manufacturer's protocol. The IC50 values for the tested compounds was calculated using Genedata Screener® software (Genedata) using the following calculation method; Compound % effect=100*[(X−min)/(max−min)], where X represents the normalized value for the compound based on the Min (DMSO) and Max (compound 3-(1,3-benzodioxol-5-yl)-1-(3,5-dimethylpiperidin-1-yl)-3-(2-hydroxy-4,6-dimethoxyphenyl)propan-1-one at 10 μM, described in J. R. Hu et al. ACS Med. Chem. Lett. 2013, 4, 79-84) inhibition controls. Results

## CC(=O)N1Cc2cc(S(C)(=O)=O)ccc2C1C(=O)Nc1ccc(C(CC(=O)NC(C)(C)C)(C(F)(F)F)C(F)(F)F)cc1 (stereo not drawn) [Example 43, 2-Acetyl-N-{4-[4-(tert-butylamino)-1,1,1-trifluoro-4-oxo-2-(trifluoromethyl)butan-2-yl]phenyl}-5-(methylsulfonyl)-2,3-dihydro-1H-isoindole-1-carboxamide]
[1]
  IC50: 794 nM
[2]
  IC50: 158 nM
[3]
  IC50: 251 nM

## CC(=O)NCCC(c1ccc(NC(=O)C2c3ccc(S(C)(=O)=O)cc3CN2C(C)=O)cc1)(C(F)(F)F)C(F)(F)F (stereo not drawn) [Example 45, 2-Acetyl-N-{4-[4-(acetylamino)-1,1,1-trifluoro-2-(trifluoromethyl)butan-2-yl]phenyl}-5-(methylsulfonyl)-2,3-dihydro-1H-isoindole-1-carboxamide]
[1]
  IC50: 794 nM
[2]
  IC50: 200 nM
[3]
  IC50: 3160 nM

Reference: patent US11034654B2, “2,3-dihydroisoindole-1-carboxamides useful as ROR-gamma modulators” (AstraZeneca AB, priority 2017, dated 2021)
